Data from patent US7589087B2 (Janssen Pharmaceutica, N.V., priority 2006, dated 2009).
Structures can show the parent of a compound that is named as a salt.

Target: T1, human histamine H4 receptor (Homo sapiens, UniProt Q9H3N8)
T1 construct: expressed in transfected cells; host or cells: SK-N-MC cells or COS7 cells, transiently transfected; membranes prepared
Test: Binding Assay on Recombinant Human Histamine H4 Receptor (3H-histamine competition, membranes of transfected SK-N-MC or COS7 cells); further: ligand 5 nM
Method: SK-N-MC cells or COS7 cells were transiently transfected with pH4R and grown in 150 cm^2 tissue culture dishes. Cells were washed with saline solution, scraped with a cell scraper and collected by centrifugation (1000 rpm, 5 min). Cell membranes were prepared by homogenization of the cell pellet in 20 mM Tris-HCl with a polytron tissue homogenizer for 10 sec at high speed. Homogenate was centrifuged at 1000 rpm for 5 min at 4° C. The supernatant was then collected and centrifuged at 20,000×g for 25 min at 4° C. The final pellet was resuspended in 50 mM Tris-HCl. […] Incubation occurred at room temperature for 45 min. Membranes were harvested by rapid filtration over Whatman GF/C filters and washed 4 times with ice-cold 50 mM Tris HCl. Filters were then dried, mixed with scintillant and counted for radioactivity.

SMILES | Ki
Cc1cc(C)c2nc(-c3ccc(N(C)CCCC4CCN(C)CC4)nc3)[nH]c2c1 [Example 1, [5-(4,6-Dimethyl-1H-benzoimidazol-2-yl)-pyridin-2-yl]-methyl-[3-(1-methyl-piperidin-4-yl)-propyl]-amine] | 12 nM
COC(=O)c1ccc2[nH]c(-c3ccc(NCCCC4CCN(C)CC4)nc3)nc2c1 [Example 8, 2-{6-[3-(1-Methyl-piperidin-4-yl)-propylamino]-pyridin-3-yl}-1H-benzoimidazole-5-carboxylic acid methyl ester] | 1590 nM
Cc1cc(Cl)cc2[nH]c(-c3ccc(NCCCN4CCN(C)CC4)nc3)nc12 [Example 9, [5-(6-Chloro-4-methyl-1H-benzoimidazol-2-yl)-pyridin-2-yl]-[3-(4-methyl-piperazin-1-yl)-propyl]-amine] | 350 nM
Cc1cc(-c2nc3c(C)c(F)ccc3[nH]2)cnc1NCCCC1CCN(C)CC1 [Example 11, [5-(5-Fluoro-4-methyl-1H-benzoimidazol-2-yl)-3-methyl-pyridin-2-yl]-[3-(1-methyl-piperidin-4-yl)-propyl]-amine] | 22 nM
Cc1cc(-c2nc3c(F)c(F)ccc3[nH]2)cnc1NCCCC1CCN(C)CC1 [Example 12, [5-(4,5-Difluoro-1H-benzoimidazol-2-yl)-3-methyl-pyridin-2-yl]-[3-(1-methyl-piperidin-4-yl)-propyl]-amine] | 78 nM
Cc1cc(C)c2nc(-c3ccnc(N(C)CCCCC4CCN(C)CC4)c3)[nH]c2c1 [Example 14, [4-(4,6-Dimethyl-1H-benzoimidazol-2-yl)-pyridin-2-yl]-methyl-[4-(1-methyl-piperidin-4-yl)-butyl]-amine hydrochloride salt] | 40 nM
Cc1cccc2[nH]c(-c3ccnc(NCCCCC4CCN(C)CC4)c3)nc12 [Example 15, [4-(4-Methyl-1H-benzoimidazol-2-yl)-pyridin-2-yl]-[4-(1-methyl-piperidin-4-yl)-butyl]-amine] | 1 nM
Cc1cc(Cl)cc2[nH]c(-c3ccnc(NCCCCC4CCN(C)CC4)c3)nc12 [Example 17, [4-(6-Chloro-4-methyl-1H-benzoimidazol-2-yl)-pyridin-2-yl]-[4-(1-methyl-piperidin-4-yl)-butyl]-amine] | 8 nM
Cc1cc(C)c2nc(-c3ccnc(NCCCCC4CCN(C)CC4)c3)[nH]c2c1 [Example 18, [4-(4,6-Dimethyl-1H-benzoimidazol-2-yl)-pyridin-2-yl]-[4-(1-methyl-piperidin-4-yl)-butyl]-amine] | 2 nM
Cc1c(F)ccc2[nH]c(-c3ccnc(NC(=O)CCCC4CCN(C)CC4)c3)nc12 [Example 20, N-[4-(5-Fluoro-4-methyl-1H-benzoimidazol-2-yl)-pyridin-2-yl]-4-(1-methyl-piperidin-4-yl)-butyramide] | 250 nM
Cc1cc(C)c2nc(-c3ccnc(NC(=O)CCCC4CCN(C)CC4)c3)[nH]c2c1 [Example 21, N-[4-(4,6-Dimethyl-1H-benzoimidazol-2-yl)-pyridin-2-yl]-4-(1-methyl-piperidin-4-yl)-butyramide] | 290 nM
Cc1cccc2[nH]c(-c3ccc(NCCCC4CCN(C)CC4)nc3)nc12 [Example 23, [5-(4-Methyl-1H-benzoimidazol-2-yl)-pyridin-2-yl]-[3-(1-methyl-piperidin-4-yl)-propyl]-amine] | 240 nM
Cc1cc(C)c2nc(-c3ccc(NCCCC4CCN(C)CC4)nc3)[nH]c2c1 [Example 24, [5-(4,6-Dimethyl-1H-benzoimidazol-2-yl)-pyridin-2-yl]-[3-(1-methyl-piperidin-4-yl)-propyl]-amine] | 23 nM
Cc1ccc2[nH]c(-c3ccc(NCCCC4CCN(C)CC4)nc3)nc2c1C [Example 25, [5-(4,5-Dimethyl-1H-benzoimidazol-2-yl)-pyridin-2-yl]-[3-(1-methyl-piperidin-4-yl)-propyl]-amine] | 58 nM
Cc1ccc2[nH]c(-c3ccc(N(C)CCCC4CCN(C)CC4)nc3)nc2c1C [Example 27, [5-(4,5-Dimethyl-1H-benzoimidazol-2-yl)-pyridin-2-yl]-methyl-[3-(1-methyl-piperidin-4-yl)-propyl]-amine] | 72 nM
CN1CCC(CCCNc2ccc(-c3nc4c(F)c(F)ccc4[nH]3)cn2)CC1 [Example 29, [5-(4,5-Difluoro-1H-benzoimidazol-2-yl)-pyridin-2-yl]-[3-(1-methyl-piperidin-4-yl)-propyl]-amine] | 89 nM
CN1CCC(CCCNc2ccc(-c3nc4cc(C(=O)c5ccccc5)ccc4[nH]3)cn2)CC1 [Example 30, (2-{6-[3-(1-Methyl-piperidin-4-yl)-propylamino]-pyridin-3-yl}-1H-benzoimidazol-5-yl)-phenyl-methanone] | 520 nM
CN1CCC(CCCNc2ccc(-c3nc4c(Cl)cccc4[nH]3)cn2)CC1 [Example 31, [5-(4-Chloro-1H-benzoimidazol-2-yl)-pyridin-2-yl]-[3-(1-methyl-piperidin-4-yl)-propyl]-amine] | 2670 nM
CN1CCC(CCCNc2ccc(-c3nc4cc(F)ccc4[nH]3)cn2)CC1 [Example 32, [5-(5-Fluoro-1H-benzoimidazol-2-yl)-pyridin-2-yl]-[3-(1-methyl-piperidin-4-yl)-propyl]-amine] | 41 nM
Cc1cc(C)c2nc(-c3ccc(NCCCN4CCN(C)CC4)nc3)[nH]c2c1 [Example 33, [5-(4,6-Dimethyl-1H-benzoimidazol-2-yl)-pyridin-2-yl]-[3-(4-methyl-piperazin-1-yl)-propyl]-amine] | 680 nM
Cc1ccc2[nH]c(-c3ccnc(NC(=O)CCCC4CCN(C)CC4)c3)nc2c1C [Example 35, N-[4-(4,5-Dimethyl-1H-benzoimidazol-2-yl)-pyridin-2-yl]-4-(1-methyl-piperidin-4-yl)-butyramide] | 470 nM

Continued, values first:

Ki | SMILES
15 nM | Cc1c(F)ccc2[nH]c(-c3ccc(N(C)CCCC4CCN(C)CC4)nc3)nc12 [Example 2, [5-(5-Fluoro-4-methyl-1H-benzoimidazol-2-yl)-pyridin-2-yl]-methyl-[3-(1-methyl-piperidin-4-yl)-propyl]-amine]
6 nM | CN1CCC(CCCNc2ccc(-c3nc4cc(Cl)ccc4[nH]3)cn2)CC1 [Example 3, [5-(5-Chloro-1H-benzoimidazol-2-yl)-pyridin-2-yl]-[3-(1-methyl-piperidin-4-yl)-propyl]-amine]
9 nM | CN1CCC(CCCNc2ccc(-c3nc4cc(C(C)(C)C)ccc4[nH]3)cn2)CC1 [Example 4, [5-(5-tert-Butyl-1H-benzoimidazol-2-yl)-pyridin-2-yl]-[3-(1-methyl-piperidin-4-yl)-propyl]-amine]
33 nM | Cc1c(F)ccc2[nH]c(-c3ccc(NCCCC4CCN(C)CC4)nc3)nc12 [Example 5, [5-(5-Fluoro-4-methyl-1H-benzoimidazol-2-yl)-pyridin-2-yl]-[3-(1-methyl-piperidin-4-yl)-propyl]-amine]
16 nM | Cc1cc(Cl)cc2[nH]c(-c3ccc(NCCCC4CCN(C)CC4)nc3)nc12 [Example 6, [5-(6-Chloro-4-methyl-1H-benzoimidazol-2-yl)-pyridin-2-yl]-[3-(1-methyl-piperidin-4-yl)-propyl]-amine]
500 nM | COc1ccc2[nH]c(-c3ccc(NCCCC4CCN(C)CC4)nc3)nc2c1 [Example 7, [5-(5-Methoxy-1H-benzoimidazol-2-yl)-pyridin-2-yl]-[3-(1-methyl-piperidin-4-yl)-propyl]-amine]
930 nM | Cc1c(F)ccc2[nH]c(-c3ccc(NCCCN4CCN(C)CC4)nc3)nc12 [Example 10, [5-(5-Fluoro-4-methyl-1H-benzoimidazol-2-yl)-pyridin-2-yl]-[3-(4-methyl-piperazin-1-yl)-propyl]-amine]
730 nM | Cc1c(F)ccc2[nH]c(-c3ccc(N(CCCC4CCN(C)CC4)C(C)C)nc3)nc12 [Example 13, [5-(5-Fluoro-4-methyl-1H-benzoimidazol-2-yl)-pyridin-2-yl]-isopropyl-[3-(1-methyl-piperidin-4-yl)-propyl]-amine]
2 nM | Cc1c(F)ccc2[nH]c(-c3ccnc(NCCCCC4CCN(C)CC4)c3)nc12 [Example 16, [4-(5-Fluoro-4-methyl-1H-benzoimidzol-2-yl)-pyridin-2-yl]-[4-(1-methyl-piperidin-4-yl)-butyl]-amine]
5 nM | Cc1c(F)ccc2[nH]c(-c3ccnc(NCCCCN4CCCN(C)CC4)c3)nc12 [Example 19, [4-(5-Fluoro-4-methyl-1H-benzoimidazol-2-yl)-pyridin-2-yl]-[4-(4-methyl-[1,4]diazepan-1-yl)-butyl]-amine]
420 nM | COC(=O)c1ccc2[nH]c(-c3ccc(N(C)CCCC4CCN(C)CC4)nc3)nc2c1 [Example 22, 2-(6-{Methyl-[3-(1-methyl-piperidin-4-yl)-propyl]-amino}-pyridin-3-yl)-1H-benzoimidazole-5-carboxylic acid methyl ester]
13 nM | CN1CCC(CCCNc2ccc(-c3nc4cc(Cl)c(F)cc4[nH]3)cn2)CC1 [Example 26, [5-(5-Chloro-6-fluoro-1H-benzoimidazol-2-yl)-pyridin-2-yl]-[3-(1-methyl-piperidin-4-yl)-propyl]-amine]
37 nM | CN1CCC(CCCN(C)c2ccc(-c3nc4c(F)c(F)ccc4[nH]3)cn2)CC1 [Example 28, [5-(4,5-Difluoro-1H-benzoimidazol-2-yl)-pyridin-2-yl]-methyl-[3-(1-methyl-piperidin-4-yl)-propyl]-amine]
570 nM | CC(C)N(CCCN1CCN(C)CC1)c1ccc(-c2nc3cc(Cl)ccc3[nH]2)cn1 [Example 34, [5-(5-Chloro-1H-benzoimidazol-2-yl)-pyridin-2-yl]-isopropyl-[3-(4-methyl-piperazin-1-yl)-propyl]-amine]
